# Experimental data published in US9420813B2, “Sweetener” (AJINOMOTO CO., INC., priority 2007, dated 2016).
# *1 amine or outer side, *2 acyl side, *3 side chain or, on linkers, in order; H or OH if unused. Where no end group is shown, it is not given here. [ ]: non-standard residue; d: D form. γGlu = O=C(O)[C@H](CCC(=O)[*:2])N[*:1]; Met(O) = CS(=O)CC[C@H](N)C(=O)O; Orn = NCCC[C@H](N)C(=O)O
# Target: T1, human calcium receptor (Homo sapiens, UniProt P41180)
# T1 construct: expressed in transfected cells; host or cells: Xenopus laevis oocytes injected with receptor cRNA; the gene was amplified by PCR from human kidney cDNA (Clontech) and cloned in pBR322
# T1 sequence (P41180 20-1078): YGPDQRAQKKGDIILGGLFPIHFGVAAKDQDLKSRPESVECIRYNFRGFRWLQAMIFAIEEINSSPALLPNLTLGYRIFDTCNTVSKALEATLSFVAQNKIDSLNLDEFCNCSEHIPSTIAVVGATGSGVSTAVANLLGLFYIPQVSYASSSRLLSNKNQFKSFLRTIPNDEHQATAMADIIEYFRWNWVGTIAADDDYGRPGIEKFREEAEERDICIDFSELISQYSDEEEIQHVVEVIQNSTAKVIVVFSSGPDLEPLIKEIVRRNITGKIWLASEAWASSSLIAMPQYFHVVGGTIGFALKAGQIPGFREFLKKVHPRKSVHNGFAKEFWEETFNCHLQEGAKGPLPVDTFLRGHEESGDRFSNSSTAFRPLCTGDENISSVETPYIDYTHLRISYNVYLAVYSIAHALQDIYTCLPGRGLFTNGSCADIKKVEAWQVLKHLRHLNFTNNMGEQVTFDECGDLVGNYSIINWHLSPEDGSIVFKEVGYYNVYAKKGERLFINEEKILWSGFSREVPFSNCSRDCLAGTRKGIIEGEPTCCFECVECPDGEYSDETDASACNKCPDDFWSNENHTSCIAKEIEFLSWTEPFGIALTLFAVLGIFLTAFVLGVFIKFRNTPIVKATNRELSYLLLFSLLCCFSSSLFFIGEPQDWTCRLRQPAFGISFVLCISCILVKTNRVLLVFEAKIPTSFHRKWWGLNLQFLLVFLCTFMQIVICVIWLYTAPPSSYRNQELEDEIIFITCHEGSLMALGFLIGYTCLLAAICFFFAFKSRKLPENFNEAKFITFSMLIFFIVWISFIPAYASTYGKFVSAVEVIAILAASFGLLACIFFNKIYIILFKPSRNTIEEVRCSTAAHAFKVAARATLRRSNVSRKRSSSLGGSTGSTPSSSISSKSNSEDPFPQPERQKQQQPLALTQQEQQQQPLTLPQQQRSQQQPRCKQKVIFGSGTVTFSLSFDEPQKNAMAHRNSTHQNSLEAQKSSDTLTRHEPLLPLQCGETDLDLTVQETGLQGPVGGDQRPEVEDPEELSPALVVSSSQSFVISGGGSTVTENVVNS
# Experiment: Calcium receptor-activating effect, Ca ion concentration-dependent Cl ionic current in Xenopus laevis oocyte expression system
# Type: cell-based
# Conditions: amino acid added at 10 mM
# Protocol: For evaluation of the calcium receptor-activating effect, Ca ion concentration-dependent Cl ionic current measuring method using a Xenopus laevis oocyte expression system was used. If activator is added to Xenopus laevis oocytes in which the calcium receptor is expressed, intracellular Ca ions increase. Then, the Ca ion concentration-dependent Cl channel opens, and the intracellular current value changes as an ionic current. By measuring the change in the intracellular current value, whether the calcium receptor-activating effect is present or not can be determined.
# Specifically, the abdomen of Xenopus laevis was opened, and an egg batch was taken out and then treated with a 1% collagenase solution at 20° C. for 2 hours to obtain individual oocytes. Into each oocyte, 50 nl of 1 μg/μl receptor cRNA or 50 nl of sterilized water per oocyte were injected by using a micro glass capillary, and the oocytes were cultured at 18° C. for 2 to 3 days. For the culture, a solution obtained by adding 2 mM of pyruvic acid, 10 U/ml of penicillin and 10 μg/ml of streptomycin to the solution in Reference Example 2 was used. After the culture, a test solution was added to the oocytes injected with cRNA or sterilized water. Electrophysiological measurement was performed by using an amplifier Geneclamp 500 (manufactured by Axon) and recording software AxoScope 9.0 (manufactured by Axon). The oocytes were voltage-clamped at −70 mV by the double electrode voltage clamp method, and the intracellular current via the Ca ion concentration-dependent Cl ion was measured. The maximum value of the intracellular currents was defined as the response current value.
# The ability of L-amino acids to activate the calcium receptor was evaluated by using the method described in Reference Example 6. That is, oocytes injected with cRNA of the calcium receptor or sterilized water were prepared, and voltage-clamped at −70 mV by the double electrode voltage clamp method. To the voltage-clamped oocytes, alanine (10 mM), arginine (10 mM), asparagine (10 mM), aspartic acid (10 mM), cysteine (10 mM), glutamine (10 mM), glutamic acid (10 mM), glycine (10 mM), histidine (10 mM), isoleucine (10 mM), leucine (10 mM), lysine (10 mM), methionine (10 mM), phenylalanine (10 mM), proline (10 mM), serine (10 mM), threonine (10 mM), tryptophan (10 mM), tyrosine (10 mM), valine (10 mM), ornithine (10 mM), taurine (10 mM) or hydroxyproline (10 mM) was added, and Ca ion concentration-dependent Cl response current was measured. […] 25, 2000, 97(9): 4814-9.
# The effect of D-cysteine for activating a calcium receptor was evaluated by using the method described in Reference Example 6. That is, oocytes injected with cRNA of the calcium receptor or sterilized water were prepared, and voltage-clamped at −70 mV by the double electrode voltage clamp method. To the voltage-clamped oocytes, D-cysteine (10 mM), L-cysteine (10 mM), D-tryptophan (10 mM) or L-tryptophan (10 mM) was added, and Ca ion concentration-dependent Cl response current was measured.
# The effect of peptide for activating calcium receptor was evaluated by using the method described in Reference Example 6. That is, oocytes injected with cRNA of the calcium receptor or sterilized water were prepared, and voltage-clamped at −70 mV by the double electrode voltage clamp method. To the voltage-clamped oocytes, γ-Glu-Cys-Gly (50 μM), γ-Glu-Cys(SNO)-Gly (50 μM), γ-Glu-Ala (50 μM), γ-Glu-Gly (500 μM), γ-Glu-Cys (50 μM), γ-Glu-Met (500 μM), γ-Glu-Thr (50 μM), γ-Glu-Val (50 μM), γ-Glu-Orn (500 μM), Asp-Gly (1 mM), Cys-Gly (1 mM), Cys-Met (1 mM), Glu-Cys (50 μM), Gly-Cys (500 μM) or Leu-Asp (1 mM) was added, and Ca ion concentration-dependent Cl response current was measured.
# The ability of a peptide to activate calcium receptor was evaluated in the same manner as that of Reference Example 10.
row,Molecule,calcium receptor-activating effect (Ca ion concentration-dependent Cl response current)
1,"N[C@@H](Cc1c[nH]c2ccccc12)C(=O)O [tryptophan, reference compound]",definite calcium receptor-activating effect
2,"N[C@@H](Cc1ccc(O)cc1)C(=O)O [tyrosine, reference compound]",definite calcium receptor-activating effect
3,"N[C@@H](CS)C(=O)O [cysteine, reference compound]",definite calcium receptor-activating effect
4,"N[C@@H](Cc1ccccc1)C(=O)O [phenylalanine, reference compound]",definite calcium receptor-activating effect
5,N[C@H](CS)C(=O)O [D-cysteine],definite calcium receptor-activating effect
6,"N[C@@H](Cc1c[nH]cn1)C(=O)O [histidine, reference compound]",definite calcium receptor-activating effect

# Same assay, conditions: peptide added at 50 μM
row,Molecule,effect for activating calcium receptor (Cl response current)
1,[γGlu]-Cys,definite effect for activating calcium receptor
2,[γGlu]-Thr,definite effect for activating calcium receptor
3,N[C@@H](CCC(=O)N[C@@H](CSN=O)C(=O)NCC(=O)O)C(=O)O [γ-Glu-Cys(SNO)-Gly],definite effect for activating calcium receptor
4,[γGlu]-Val,definite effect for activating calcium receptor
5,[γGlu]-Ala,definite effect for activating calcium receptor
6,Glu-Cys,definite effect for activating calcium receptor

# Same assay, conditions: peptide added at 500 μM
row,Molecule,effect for activating calcium receptor (Cl response current)
1,[γGlu]-Met,definite effect for activating calcium receptor
2,Gly-Cys,definite effect for activating calcium receptor
3,γ-Glu-Orn,definite effect for activating calcium receptor
4,[γGlu]-Gly,definite effect for activating calcium receptor

# Same assay, conditions: peptide added at 1 mM
row,Molecule,effect for activating calcium receptor (Cl response current)
1,Asp-Gly,definite effect for activating calcium receptor
2,Cys-Met,definite effect for activating calcium receptor
3,Leu-Asp,definite effect for activating calcium receptor
4,Cys-Gly,definite effect for activating calcium receptor

# Same assay, conditions: peptide added at 1,000 to 0.1 μM; Ca ion concentration-dependent Cl response current; oocytes voltage-clamped at −70 mV
row,Molecule,Activity (lowest concentration at which current is detected)
1,γ-Glu-t-Leu,100 µM
2,[γGlu]-Val-Phe,30 µM
3,[γGlu]-Val-NH2,"1,000 μM"
4,[γGlu]-Val-Pro,30 µM
5,[γGlu]-[Met(O)],"1,000 μM"
6,[γGlu]-Val-Lys,"1,000 μM"
7,[γGlu]-Val-His,100 µM
8,[γGlu]-Val-[Orn],100 µM
9,[γGlu]-Val-Arg,"1,000 μM"
10,[γGlu]-Val-Thr,"1,000 μM"
11,[γGlu]-Ser-Gly,30 µM
12,[γGlu]-Val-Gln,10 µM
13,[γGlu]-Val-Glu,"1,000 μM"
14,[γGlu]-Val-Ser,30 µM
15,γ-Glu-Cys(S-Me)-Gly,3 µM
16,[γGlu]-Val-Asn,30 µM
17,[γGlu]-Val-Val,"1,000 μM"
18,γ-Glu-Val-ol,"1,000 μM"
19,[γGlu]-Val-Met,"1,000 μM"
20,γ-Glu-Tau,300 µM
21,[γGlu]-Val-Cys,10 µM
22,[γGlu]-Gly-Gly [γ-Glu-Glγ-Gly],30 µM
23,γ-Glu-Val-Asp,"1,000 μM"
24,γ-Glu-Cys(S-allyl)-Gly,100 µM
25,[γGlu]-[γGlu]-Val,"1,000 μM"

# System: not listed separately
# Experiment: Quantitative sensory evaluation test, intensity of kokumi-imparting activity
# Conditions: sample 0.1 g/dl; control 0, glutathione 3 points; n=3
# Protocol: The quantitative sensory evaluation test was performed as follows. […] When a sample is acidic when dissolved, the pH was adjusted with NaOH to pH 6.8 to 7.2 before use. Because it is known that glutathione can impart kokumi to a food, glutathione was used as a comparative control. The test was performed with n=3 based on the following sensory evaluation scores: control was given 0 points, glutathione addition was given 3 points. […] It should be noted that the term “initial and middle taste” is a collective term of the initial taste and middle taste.
# The quantitative sensory evaluation test was performed as follows. […] When a sample is acidic when dissolved, the pH of the sample was adjusted with NaOH to pH 6.8 to 7.2 before use. The test was performed with n=5 based on the following sensory evaluation scores: control was given 0 point and glutathione addition was given 3 points.
# The quantitative sensory evaluation test was performed as follows. […] As for a sample which is acidic when the sample is dissolved, pH of the sample was adjusted with NaOH to pH 6.8 to 7.2 before use. The test was performed with n=12 based on the following sensory evaluation scores: control: 0 point and glutathione addition: 3 points.
Molecule,"Kokumi intensity, aftertaste [points]","Kokumi intensity, initial and middle taste [points]"
[γGlu]-Met,0.4,1.5
[γGlu]-Val,1.0,3.0
[γGlu]-Ala,0.2,0.5

# Same assay, conditions: sample 0.1 g/dl; control 0, glutathione 3 points; n=5
Molecule,"Kokumi intensity, aftertaste [points]","Kokumi intensity, initial and middle taste [points]"
[γGlu]-Cys,2.0,2.0
[γGlu]-Val,1.0,3.0

# Same assay, conditions: sample 0.1 g/dl; n=5
row,Molecule,Taste profile
1,[γGlu]-Cys,A slightly
